{"source": "patent US20230310441A1", "about": "“TREATMENT FOR SCHIZOPHRENIA” (TAKEDA PHARMACEUTICAL COMPANY, priority 2020, published 2023)", "assay": "Phase 1 FIH study: safety and tolerability (TEAEs) in healthy participants", "format": "in vivo, human", "method": "A phase 1 first-in-human (FIH) study was conducted at a single site in the United States to evaluate the safety, tolerability, and pharmacokinetics (PK) of Compound (I). Specifically, Compound (I) was tested to evaluate the safety, tolerability, and PK of single and multiple doses in healthy participants and as add-on therapy to antipsychotics in participants with stable schizophrenia. The phase I study also assessed the oral bioavailability of Compound (I) in healthy participants administered a tablet formulation compared to an oral suspension formulation in a fasted state, as well the effect of a high-fat, high-calorie meal on the PK of a single dose of a tablet formulation of Compound (I). Additional exploratory pharmacodynamic analysis was undertaken in patients with stable schizophrenia to inform future studies.\nCohorts in Parts 1 and 2 were randomized to receive either Compound (I) or placebo in a 6:2 ratio. Cohorts in Part 3 were randomized in a 1:1 ratio, while the cohort in Part 4 was randomized in a 2:1 ratio.\nPart 1 was a double-blind, SRD study in healthy adults, utilizing an alternate panel design (cohorts 1, 2) and sequential panel design (cohorts 3-5). Cohorts 1 and 2 were part of a two-period, alternating-panel, double-blind study of Compound (I) administered as an oral suspension (5 mg, 10 mg, 20 mg, or 40 mg) or matched placebo, with a washout period of at least 7 days between treatment periods. Cohorts 3-5 were part of a sequential-panel, double-blind study to evaluate the SRDs of Compound (I) (80, 120, or 160 mg, respectively) or matched placebo. Although planned, all subsequent doses after the dose of 80 mg were determined based on emerging safety, tolerability, and PK data from the preceding cohorts.\nIn Part 2, participants received either placebo on all dosing days or a loading dose of Compound (I) on Day 1 and a maintenance dose of half the initial dose on Days 8, 15 and 22, administered as an oral suspension. Baseline measurements were obtained on Day −2, and study-specific measurements were obtained following oral dose administrations on Days 1, 8, 15, and 22.\nPart 3 was a randomized, open-label, single-dose, parallel design study to evaluate the bioavailability of a Compound (I) tablet formulation relative to a Compound (I) oral suspension formulation and the effect of food on the PK in healthy participants. The immediate release tablet contained mannitol, microcrystalline cellulose, and other commonly used excipients. Participants were randomized 1:1 to receive a single 40 mg dose of Compound (I) as a tablet after either 10 h overnight fast, or 30 min after beginning ingestion of a high-fat, high-calorie breakfast.\nSafety measurements used in the phase 1 study included treatment-emergent adverse events (TEAEs), physical examinations, weight, height, BMI, vital signs, clinical laboratory evaluations, pregnancy monitoring, and ECG procedures.\nTEAEs were defined as any adverse event that occurred or worsened after receiving the first dose of Compound (I) and within 6 weeks after the last dose of Compound (I). Participants experiencing two or more different TEAEs were counted only once. Frequent TEAEs were defined as adverse events that occurred in at least two participants in any treatment. Participants were evaluated with respect to mood and alertness (BL-VAS) and suicidality (C-SSRS).", "key": {"[1]": {"settings": "Part 2 MRD, 40/20 mg, N = 6, participants (percent)"}, "[2]": {"settings": "Part 2 MRD, 80/40 mg, N = 6, participants (percent)"}, "[3]": {"settings": "Part 2 MRD, 120/60 mg, N = 6, participants (percent)"}, "[4]": {"settings": "Part 2 MRD, 160/80 mg, N = 6, participants (percent)"}}, "data": [{"smiles": "C[C@H](NC(=O)Cn1nnc2ccccc2c1=O)c1ccc(OC(F)(F)F)cc1", "note": "[Compound (I), (S)-2-(4-oxobenzo[d][1,2,3]triazin-3(4H)-yl)-N-(1-(4-(trifluoromethoxy)phenyl)ethyl)acetamide]", "values": [{"measurement": "TEAEs related to the study drug (investigator)", "setting": "Part 1 (SRD)", "result": "None of the TEAEs were considered to be related to the study drug"}, {"measurement": "participants who experienced a TEAE", "setting": "Part 1 (SRD), participants who received Compound (I)", "result": 20.0, "unit": "%"}, {"measurement": "Any TEAE", "setting": "[1]", "result": "4 (66.7)"}, {"measurement": "TEAE Mild", "setting": "[1]", "result": "4 (66.7)"}, {"measurement": "TEAE Not related", "setting": "[1]", "result": "4 (66.7)"}, {"measurement": "Any TEAE", "setting": "[2]", "result": "4 (66.7)"}, {"measurement": "TEAE Mild", "setting": "[2]", "result": "4 (66.7)"}, {"measurement": "TEAE Not related", "setting": "[2]", "result": "3 (50.0)"}, {"measurement": "TEAE Related", "setting": "[2]", "result": "1 (16.7)"}, {"measurement": "Any TEAE", "setting": "[3]", "result": "3 (50.0)"}, {"measurement": "TEAE Mild", "setting": "[3]", "result": "2 (33.3)"}, {"measurement": "TEAE Moderate", "setting": "[3]", "result": "1 (16.7)"}, {"measurement": "TEAE Not related", "setting": "[3]", "result": "3 (50.0)"}, {"measurement": "Any TEAE", "setting": "[4]", "result": "5 (83.3)"}, {"measurement": "TEAE Mild", "setting": "[4]", "result": "5 (83.3)"}, {"measurement": "TEAE Not related", "setting": "[4]", "result": "2 (33.3)"}, {"measurement": "TEAE Related", "setting": "[4]", "result": "3 (50.0)"}, {"measurement": "participants who experienced a TEAE", "setting": "Part 3, single dose after overnight fast of at least 10 h, tablet", "result": 11.1, "unit": "%"}, {"measurement": "participants who experienced a TEAE", "setting": "Part 3, single dose following high-fat, high-calorie breakfast, tablet", "result": 22.2, "unit": "%"}, {"measurement": "discontinuations due to TEAEs", "setting": "phase 1 study, all parts", "result": "No discontinuations due to TEAEs occurred"}, {"measurement": "deaths, serious adverse events, or other significant TEAEs", "setting": "phase 1 study, all parts, 114 randomized participants", "result": "No deaths, serious adverse events, or other significant TEAEs were reported"}, {"measurement": "tolerability", "setting": "phase 1 study, single and repeated oral doses, healthy volunteers and patients with stable schizophrenia", "result": "generally well-tolerated"}, {"measurement": "headache frequency vs placebo", "setting": "phase 1 study, frequency appeared to increase with higher doses", "result": "more frequently with Compound (I) than with placebo"}]}]}
